For this assay, the system named is platelet aggregation (platelet rich plasma (PRP)). As to the kind of experiment: Platelet Aggregation Assay (no esterase), platelet rich plasma. Format: cell-based. The conditions noted are these: human platelet rich plasma (PRP), concentration inhibiting platelet aggregation by 50% relative to control. How it is done: Platelet Aggregation Assay:
venous blood was obtained from the arm of a healthy human donor who was drug-free and aspirin-free for at least two weeks prior to blood collection. Blood was collected into 10 mL citrated Vacutainer tubes. The blood was centrifuged for 15 minutes at 150×g at room temperature, and platelet-rich plasma (PRP) was removed. The remaining blood was centrifuged for 15 minutes at 1500×g at room temperature, and platelet-poor plasma (PPP) was removed. Samples were assayed on a aggregometer (PAP-4 Platelet Aggregation Profiler), using PPP as the blank (100% transmittance). […] of PRP was added to each micro test tube, and transmittance was set to 0%. 20 μL of various agonists (ADP, collagen, arachidonate, epinephrine, thrombin) were added to each tube, and the aggregation profiles were plotted (% transmittance versus time). The results are expressed as % inhibition of agonist-induced platelet aggregation. For the IC50 evaluation, the test compounds were added at various concentrations prior to the activation of the platelets.
Table A below sets forth the antiplatelet activity of representative compounds of the present invention. The indicated compounds were tested for their ability to inhibit platelet aggregation (using platelet rich plasma (PRP)). The IC50 value (the concentration of antagonist which inhibits platelet aggregation by 50% relative to a control lacking the antagonist) is shown. In Table A the IC50 values are expressed as: +++=IC50 of <1 μM; ++=IC50 of 1-50 μM; +=IC50 of 50-100 μM (μM=micromolar).

Molecules are shown by their SMILES. Structures can show the parent of a compound that is named as a salt.

The IC50 is the point on the concentration scale where inhibition reaches its midpoint.

Compound `Cc1noc(C)c1S(=O)(=O)N[C@@H](CNC(=O)C[C@@H]1CC(c2ccc(C(=N)N)cc2)=NO1)C(=O)O` [N^2-(3,5-Dimethylisoxazole-4-sulfonyl)-N^3-[3-(4-amidinophenyl)isoxazolin-5(S)-ylacetyl]-(S)-2,3-diamino-propionate Trifluoroacetate Salt] displayed an IC50 of under 1000 nM.

Take `Cc1noc(C)c1S(=O)(=O)N[C@@H](CNC(=O)C[C@H]1CC(c2ccc(C(=N)N)cc2)=NO1)C(=O)O` [N^2-(3,5-dimethylisoxazole-4-sulfonyl)-N^3-[3-(4-amidinophenyl)isoxazolin-5(R)-ylacetyl]-(S)-2,3-diaminopropionate Trifluoroacetate Salt]: the IC50 was under 1000 nM.

In turn, `Cc1noc(C)c1S(=O)(=O)N[C@@H](CNC(=O)CC1CC(c2ccc(C(=N)N)cc2)=NO1)C(=O)O` (stereo partly drawn) [N^2-(3,5-dimethylisoxazole-4-sulfonyl)-N^3-[3-(4-amidinophenyl)isoxazolin-5(R,S)-ylacetyl]-(S)-2,3-diaminopropionateTrifluoroacetate Salt] had an IC50 of under 1000 nM.

For the origin of these results see US5811441A, “Isoxazoline fibrinogen receptor antagonists” (The DuPont Merck Pharmaceutical Company, priority 1997, dated 1998).
